In ChEMBL document CHEMBL3991601, “The target landscape of clinical kinase drugs” (Science, 2017):
Active and inactive are the calls of the source. Cut-off read from the data, not from the text of the source, for most assays here: actives have a measured Kd and inactives only a lower limit.

Molecular target: T1, Activin receptor type-1 (Homo sapiens, UniProt Q04771)
T1 sequence (Q04771 whole entry): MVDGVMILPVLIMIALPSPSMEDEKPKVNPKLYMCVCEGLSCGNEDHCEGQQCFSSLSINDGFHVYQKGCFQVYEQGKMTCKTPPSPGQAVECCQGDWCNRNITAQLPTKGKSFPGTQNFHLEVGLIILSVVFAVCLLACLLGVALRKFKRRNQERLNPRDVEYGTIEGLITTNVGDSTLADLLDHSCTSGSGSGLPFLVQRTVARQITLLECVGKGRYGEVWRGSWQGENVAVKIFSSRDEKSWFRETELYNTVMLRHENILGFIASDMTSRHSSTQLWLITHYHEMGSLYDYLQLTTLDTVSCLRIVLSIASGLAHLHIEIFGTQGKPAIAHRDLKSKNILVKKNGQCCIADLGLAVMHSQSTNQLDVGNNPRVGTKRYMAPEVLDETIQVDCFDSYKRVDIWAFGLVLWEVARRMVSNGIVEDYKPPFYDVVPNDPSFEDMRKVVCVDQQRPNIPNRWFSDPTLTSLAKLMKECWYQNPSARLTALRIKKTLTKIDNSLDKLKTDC
Note: in the data inactive means no Kd found up to 30 µM.

SMILES	Kd
CNC(=O)c1ccc(C)c(-n2c(C)cc(OCc3ccc(F)cc3F)c(Br)c2=O)c1 [PH-797804]	> 30 µM (inactive)
C=CC(=O)N1CCC(Oc2cc3c(Nc4ccc(Cl)c(Cl)c4F)ncnc3cc2OC)CC1 [POZIOTINIB]	> 30 µM (inactive)
CNC(=O)c1cc(Oc2ccc(NC(=O)Nc3ccc(Cl)c(C(F)(F)F)c3)c(F)c2)ccn1 [REGORAFENIB]	> 30 µM (inactive)
CN(C)C(=O)c1cc2cnc(Nc3ccc(N4CCNCC4)cn3)nc2n1C1CCCC1 [RIBOCICLIB]	> 30 µM (inactive)

Molecular target: T2, cGMP-dependent protein kinase 1 (Homo sapiens, UniProt Q13976)
T2 sequence (Q13976 whole entry): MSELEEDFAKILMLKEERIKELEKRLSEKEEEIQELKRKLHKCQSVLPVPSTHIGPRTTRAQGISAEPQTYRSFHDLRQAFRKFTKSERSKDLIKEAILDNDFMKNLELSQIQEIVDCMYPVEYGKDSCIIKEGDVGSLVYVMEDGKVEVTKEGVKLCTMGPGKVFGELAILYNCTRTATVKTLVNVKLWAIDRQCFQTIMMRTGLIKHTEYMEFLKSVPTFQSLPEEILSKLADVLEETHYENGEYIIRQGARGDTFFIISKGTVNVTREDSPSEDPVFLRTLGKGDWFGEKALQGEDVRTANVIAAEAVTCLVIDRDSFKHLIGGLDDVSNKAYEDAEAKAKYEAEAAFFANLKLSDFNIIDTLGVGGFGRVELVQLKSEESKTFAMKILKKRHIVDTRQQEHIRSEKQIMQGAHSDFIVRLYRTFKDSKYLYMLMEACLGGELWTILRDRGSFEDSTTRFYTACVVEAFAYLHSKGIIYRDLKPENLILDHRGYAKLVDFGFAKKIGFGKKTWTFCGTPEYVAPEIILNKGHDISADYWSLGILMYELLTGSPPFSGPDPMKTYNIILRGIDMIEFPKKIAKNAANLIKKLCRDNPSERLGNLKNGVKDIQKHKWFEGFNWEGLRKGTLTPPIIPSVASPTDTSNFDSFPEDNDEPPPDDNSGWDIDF

SMILES	Kd
CNC(=O)c1ccc(C)c(-n2c(C)cc(OCc3ccc(F)cc3F)c(Br)c2=O)c1 [PH-797804]	> 30 µM (inactive)
C=CC(=O)N1CCC(Oc2cc3c(Nc4ccc(Cl)c(Cl)c4F)ncnc3cc2OC)CC1 [POZIOTINIB]	> 30 µM (inactive)
CNC(=O)c1cc(Oc2ccc(NC(=O)Nc3ccc(Cl)c(C(F)(F)F)c3)c(F)c2)ccn1 [REGORAFENIB]	> 30 µM (inactive)
CN(C)C(=O)c1cc2cnc(Nc3ccc(N4CCNCC4)cn3)nc2n1C1CCCC1 [RIBOCICLIB]	> 30 µM (inactive)

Molecular target: T3, Interleukin-1 receptor-associated kinase 4 (Homo sapiens, UniProt Q9NWZ3)
T3 sequence (Q9NWZ3 whole entry): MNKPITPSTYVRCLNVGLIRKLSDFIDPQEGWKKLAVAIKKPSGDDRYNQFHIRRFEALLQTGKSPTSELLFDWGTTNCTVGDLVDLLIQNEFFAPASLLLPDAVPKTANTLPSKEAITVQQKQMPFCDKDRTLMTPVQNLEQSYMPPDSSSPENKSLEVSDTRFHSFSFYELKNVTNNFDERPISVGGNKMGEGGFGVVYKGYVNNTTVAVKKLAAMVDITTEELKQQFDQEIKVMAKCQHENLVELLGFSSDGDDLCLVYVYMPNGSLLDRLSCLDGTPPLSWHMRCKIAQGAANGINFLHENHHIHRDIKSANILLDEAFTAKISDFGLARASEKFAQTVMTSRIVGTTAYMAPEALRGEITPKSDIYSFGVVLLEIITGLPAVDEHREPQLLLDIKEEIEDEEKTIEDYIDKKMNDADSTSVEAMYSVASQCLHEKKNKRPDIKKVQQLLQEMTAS

SMILES	Kd
CNC(=O)c1ccc(C)c(-n2c(C)cc(OCc3ccc(F)cc3F)c(Br)c2=O)c1 [PH-797804]	> 30 µM (inactive)
C=CC(=O)N1CCC(Oc2cc3c(Nc4ccc(Cl)c(Cl)c4F)ncnc3cc2OC)CC1 [POZIOTINIB]	> 30 µM (inactive)
CNC(=O)c1cc(Oc2ccc(NC(=O)Nc3ccc(Cl)c(C(F)(F)F)c3)c(F)c2)ccn1 [REGORAFENIB]	> 30 µM (inactive)
CN(C)C(=O)c1cc2cnc(Nc3ccc(N4CCNCC4)cn3)nc2n1C1CCCC1 [RIBOCICLIB]	> 30 µM (inactive)

Molecular target: Serine/threonine-protein kinase N2 (Homo sapiens, UniProt Q16513)
Sequence (Q16513 whole entry): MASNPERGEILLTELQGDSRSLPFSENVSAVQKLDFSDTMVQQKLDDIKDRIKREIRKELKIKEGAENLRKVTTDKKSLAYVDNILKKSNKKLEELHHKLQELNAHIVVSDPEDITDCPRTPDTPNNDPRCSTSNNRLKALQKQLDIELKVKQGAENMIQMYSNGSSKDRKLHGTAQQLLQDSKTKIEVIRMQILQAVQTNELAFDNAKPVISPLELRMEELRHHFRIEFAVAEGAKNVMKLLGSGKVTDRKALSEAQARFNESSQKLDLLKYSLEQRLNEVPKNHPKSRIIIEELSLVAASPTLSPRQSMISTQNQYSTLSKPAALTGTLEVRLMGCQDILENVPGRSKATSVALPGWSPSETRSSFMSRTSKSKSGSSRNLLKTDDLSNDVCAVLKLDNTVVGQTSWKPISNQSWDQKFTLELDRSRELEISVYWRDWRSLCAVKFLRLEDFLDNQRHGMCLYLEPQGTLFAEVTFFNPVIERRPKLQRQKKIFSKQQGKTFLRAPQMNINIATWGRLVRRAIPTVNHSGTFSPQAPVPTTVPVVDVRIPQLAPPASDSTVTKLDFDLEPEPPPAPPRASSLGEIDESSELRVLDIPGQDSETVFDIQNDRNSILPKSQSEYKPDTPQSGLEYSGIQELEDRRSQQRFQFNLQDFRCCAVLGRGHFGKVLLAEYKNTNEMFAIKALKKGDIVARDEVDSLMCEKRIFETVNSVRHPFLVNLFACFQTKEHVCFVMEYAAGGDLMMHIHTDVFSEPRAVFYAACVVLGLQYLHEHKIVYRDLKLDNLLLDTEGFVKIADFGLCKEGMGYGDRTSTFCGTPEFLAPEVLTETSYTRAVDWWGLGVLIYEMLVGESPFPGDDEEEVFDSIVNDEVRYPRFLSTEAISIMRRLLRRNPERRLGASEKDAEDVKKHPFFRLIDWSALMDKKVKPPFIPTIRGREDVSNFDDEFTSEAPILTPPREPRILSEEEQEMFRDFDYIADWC

SMILES	Kd
CNC(=O)c1ccc(C)c(-n2c(C)cc(OCc3ccc(F)cc3F)c(Br)c2=O)c1 [PH-797804]	> 30 µM (inactive)
C=CC(=O)N1CCC(Oc2cc3c(Nc4ccc(Cl)c(Cl)c4F)ncnc3cc2OC)CC1 [POZIOTINIB]	> 30 µM (inactive)
CNC(=O)c1cc(Oc2ccc(NC(=O)Nc3ccc(Cl)c(C(F)(F)F)c3)c(F)c2)ccn1 [REGORAFENIB]	> 30 µM (inactive)
CN(C)C(=O)c1cc2cnc(Nc3ccc(N4CCNCC4)cn3)nc2n1C1CCCC1 [RIBOCICLIB]	> 30 µM (inactive)

Molecular target: BMP-2-inducible protein kinase (Homo sapiens, UniProt Q9NSY1)

SMILES	Kd
CNC(=O)c1ccc(C)c(-n2c(C)cc(OCc3ccc(F)cc3F)c(Br)c2=O)c1 [PH-797804]	> 30 µM (inactive)
C=CC(=O)N1CCC(Oc2cc3c(Nc4ccc(Cl)c(Cl)c4F)ncnc3cc2OC)CC1 [POZIOTINIB]	> 30 µM (inactive)
CNC(=O)c1cc(Oc2ccc(NC(=O)Nc3ccc(Cl)c(C(F)(F)F)c3)c(F)c2)ccn1 [REGORAFENIB]	> 30 µM (inactive)
CN(C)C(=O)c1cc2cnc(Nc3ccc(N4CCNCC4)cn3)nc2n1C1CCCC1 [RIBOCICLIB]	> 30 µM (inactive)

Molecular target: Tyrosine-protein kinase ABL1 (Homo sapiens, UniProt P00519)
Sequence (P00519 whole entry): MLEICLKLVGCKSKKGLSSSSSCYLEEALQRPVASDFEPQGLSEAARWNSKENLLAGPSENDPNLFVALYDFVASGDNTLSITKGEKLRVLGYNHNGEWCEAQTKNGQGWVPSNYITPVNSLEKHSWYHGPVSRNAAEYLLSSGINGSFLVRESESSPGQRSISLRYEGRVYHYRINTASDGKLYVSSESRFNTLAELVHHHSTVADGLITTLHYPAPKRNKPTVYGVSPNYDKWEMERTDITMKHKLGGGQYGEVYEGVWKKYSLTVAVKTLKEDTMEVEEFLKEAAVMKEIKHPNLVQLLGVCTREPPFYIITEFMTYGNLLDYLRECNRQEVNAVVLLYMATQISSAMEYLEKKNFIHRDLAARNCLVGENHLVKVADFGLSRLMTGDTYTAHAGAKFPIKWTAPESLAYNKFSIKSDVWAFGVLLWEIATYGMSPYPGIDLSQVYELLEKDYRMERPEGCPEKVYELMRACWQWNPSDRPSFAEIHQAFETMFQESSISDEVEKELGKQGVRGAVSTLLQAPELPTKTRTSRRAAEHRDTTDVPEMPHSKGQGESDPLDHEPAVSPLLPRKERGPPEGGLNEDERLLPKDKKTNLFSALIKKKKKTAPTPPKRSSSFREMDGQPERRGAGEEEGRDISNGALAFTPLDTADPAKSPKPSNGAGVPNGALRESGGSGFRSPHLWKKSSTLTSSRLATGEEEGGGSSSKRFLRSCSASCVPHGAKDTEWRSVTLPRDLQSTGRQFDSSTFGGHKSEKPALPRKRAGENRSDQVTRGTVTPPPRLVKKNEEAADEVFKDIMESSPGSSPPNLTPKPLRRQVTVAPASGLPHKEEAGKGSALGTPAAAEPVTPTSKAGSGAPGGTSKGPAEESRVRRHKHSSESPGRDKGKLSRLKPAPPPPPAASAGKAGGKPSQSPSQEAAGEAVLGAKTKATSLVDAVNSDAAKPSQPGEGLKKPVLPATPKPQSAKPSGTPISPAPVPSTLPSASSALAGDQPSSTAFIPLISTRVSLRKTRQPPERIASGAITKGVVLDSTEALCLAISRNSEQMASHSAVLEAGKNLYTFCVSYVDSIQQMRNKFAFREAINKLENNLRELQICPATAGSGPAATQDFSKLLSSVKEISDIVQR

SMILES	Kd
CNC(=O)c1ccc(C)c(-n2c(C)cc(OCc3ccc(F)cc3F)c(Br)c2=O)c1 [PH-797804]	> 30 µM (inactive)
C=CC(=O)N1CCC(Oc2cc3c(Nc4ccc(Cl)c(Cl)c4F)ncnc3cc2OC)CC1 [POZIOTINIB]	> 30 µM (inactive)
CNC(=O)c1cc(Oc2ccc(NC(=O)Nc3ccc(Cl)c(C(F)(F)F)c3)c(F)c2)ccn1 [REGORAFENIB]	0.753 µM (active)
CN(C)C(=O)c1cc2cnc(Nc3ccc(N4CCNCC4)cn3)nc2n1C1CCCC1 [RIBOCICLIB]	> 30 µM (inactive)

Molecular target: T4, Exosome RNA helicase MTR4 (Homo sapiens, UniProt P42285)
T4 sequence (P42285 whole entry): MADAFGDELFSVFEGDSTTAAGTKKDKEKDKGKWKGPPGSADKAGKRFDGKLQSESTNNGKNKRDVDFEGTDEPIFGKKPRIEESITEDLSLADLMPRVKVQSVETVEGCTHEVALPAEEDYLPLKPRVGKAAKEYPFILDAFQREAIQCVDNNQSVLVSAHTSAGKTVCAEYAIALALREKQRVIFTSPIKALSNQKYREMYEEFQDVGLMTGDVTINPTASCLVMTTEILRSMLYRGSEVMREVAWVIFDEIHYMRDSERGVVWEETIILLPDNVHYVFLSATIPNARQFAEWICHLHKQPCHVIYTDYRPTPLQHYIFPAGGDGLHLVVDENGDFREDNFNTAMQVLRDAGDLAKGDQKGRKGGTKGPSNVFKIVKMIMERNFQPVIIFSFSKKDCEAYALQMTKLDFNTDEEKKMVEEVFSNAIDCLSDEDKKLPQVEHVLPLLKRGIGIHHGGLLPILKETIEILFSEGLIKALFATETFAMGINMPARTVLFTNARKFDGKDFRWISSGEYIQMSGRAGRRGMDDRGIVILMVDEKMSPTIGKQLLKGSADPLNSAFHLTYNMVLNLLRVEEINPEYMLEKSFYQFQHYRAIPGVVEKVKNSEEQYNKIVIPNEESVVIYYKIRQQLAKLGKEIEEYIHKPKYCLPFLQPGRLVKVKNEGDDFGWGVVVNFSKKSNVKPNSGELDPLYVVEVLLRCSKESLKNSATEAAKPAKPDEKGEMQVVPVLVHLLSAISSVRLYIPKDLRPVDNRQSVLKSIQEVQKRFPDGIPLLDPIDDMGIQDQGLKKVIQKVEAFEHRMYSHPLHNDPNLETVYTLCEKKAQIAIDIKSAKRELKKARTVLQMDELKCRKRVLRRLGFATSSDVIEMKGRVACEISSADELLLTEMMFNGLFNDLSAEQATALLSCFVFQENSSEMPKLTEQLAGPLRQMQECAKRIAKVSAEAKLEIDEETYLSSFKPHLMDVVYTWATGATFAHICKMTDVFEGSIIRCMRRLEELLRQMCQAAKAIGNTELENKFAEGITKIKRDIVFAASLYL

SMILES	Kd
CNC(=O)c1ccc(C)c(-n2c(C)cc(OCc3ccc(F)cc3F)c(Br)c2=O)c1 [PH-797804]	> 30 µM (inactive)
C=CC(=O)N1CCC(Oc2cc3c(Nc4ccc(Cl)c(Cl)c4F)ncnc3cc2OC)CC1 [POZIOTINIB]	> 30 µM (inactive)
CNC(=O)c1cc(Oc2ccc(NC(=O)Nc3ccc(Cl)c(C(F)(F)F)c3)c(F)c2)ccn1 [REGORAFENIB]	> 30 µM (inactive)
CN(C)C(=O)c1cc2cnc(Nc3ccc(N4CCNCC4)cn3)nc2n1C1CCCC1 [RIBOCICLIB]	> 30 µM (inactive)

Molecular target: Ephrin type-A receptor 4 (Homo sapiens, UniProt P54764)
Sequence (P54764 whole entry): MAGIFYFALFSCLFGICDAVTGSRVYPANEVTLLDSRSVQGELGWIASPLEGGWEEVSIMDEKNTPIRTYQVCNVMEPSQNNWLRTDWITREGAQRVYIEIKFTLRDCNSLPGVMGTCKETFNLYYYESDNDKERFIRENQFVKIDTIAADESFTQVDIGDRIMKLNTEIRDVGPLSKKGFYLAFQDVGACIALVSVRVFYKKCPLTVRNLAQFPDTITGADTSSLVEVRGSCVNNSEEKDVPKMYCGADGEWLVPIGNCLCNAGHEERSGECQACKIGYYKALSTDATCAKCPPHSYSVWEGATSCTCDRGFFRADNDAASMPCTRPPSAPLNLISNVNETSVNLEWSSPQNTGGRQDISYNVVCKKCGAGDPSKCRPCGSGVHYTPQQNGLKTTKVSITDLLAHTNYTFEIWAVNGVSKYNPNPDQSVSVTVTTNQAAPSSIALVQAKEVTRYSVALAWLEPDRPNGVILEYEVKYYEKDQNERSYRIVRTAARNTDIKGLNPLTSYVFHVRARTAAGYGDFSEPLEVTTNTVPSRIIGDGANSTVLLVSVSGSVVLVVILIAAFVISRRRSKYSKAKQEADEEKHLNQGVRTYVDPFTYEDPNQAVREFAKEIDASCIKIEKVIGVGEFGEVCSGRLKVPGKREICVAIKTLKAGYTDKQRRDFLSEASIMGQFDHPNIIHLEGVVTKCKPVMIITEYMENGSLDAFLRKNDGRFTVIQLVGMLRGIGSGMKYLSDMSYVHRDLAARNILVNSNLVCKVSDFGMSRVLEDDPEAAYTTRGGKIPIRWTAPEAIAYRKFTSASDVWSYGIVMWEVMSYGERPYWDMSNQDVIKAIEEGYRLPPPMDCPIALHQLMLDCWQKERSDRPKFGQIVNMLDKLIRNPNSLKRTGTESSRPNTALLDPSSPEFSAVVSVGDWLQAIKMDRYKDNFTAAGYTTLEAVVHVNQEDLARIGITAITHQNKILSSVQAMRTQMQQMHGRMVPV

SMILES	Kd
CNC(=O)c1ccc(C)c(-n2c(C)cc(OCc3ccc(F)cc3F)c(Br)c2=O)c1 [PH-797804]	> 30 µM (inactive)
C=CC(=O)N1CCC(Oc2cc3c(Nc4ccc(Cl)c(Cl)c4F)ncnc3cc2OC)CC1 [POZIOTINIB]	7.06 µM (active)
CNC(=O)c1cc(Oc2ccc(NC(=O)Nc3ccc(Cl)c(C(F)(F)F)c3)c(F)c2)ccn1 [REGORAFENIB]	> 30 µM (inactive)
CN(C)C(=O)c1cc2cnc(Nc3ccc(N4CCNCC4)cn3)nc2n1C1CCCC1 [RIBOCICLIB]	> 30 µM (inactive)

Molecular target: Serine/threonine-protein kinase PAK 4 (Homo sapiens, UniProt O96013)
Sequence (O96013 whole entry): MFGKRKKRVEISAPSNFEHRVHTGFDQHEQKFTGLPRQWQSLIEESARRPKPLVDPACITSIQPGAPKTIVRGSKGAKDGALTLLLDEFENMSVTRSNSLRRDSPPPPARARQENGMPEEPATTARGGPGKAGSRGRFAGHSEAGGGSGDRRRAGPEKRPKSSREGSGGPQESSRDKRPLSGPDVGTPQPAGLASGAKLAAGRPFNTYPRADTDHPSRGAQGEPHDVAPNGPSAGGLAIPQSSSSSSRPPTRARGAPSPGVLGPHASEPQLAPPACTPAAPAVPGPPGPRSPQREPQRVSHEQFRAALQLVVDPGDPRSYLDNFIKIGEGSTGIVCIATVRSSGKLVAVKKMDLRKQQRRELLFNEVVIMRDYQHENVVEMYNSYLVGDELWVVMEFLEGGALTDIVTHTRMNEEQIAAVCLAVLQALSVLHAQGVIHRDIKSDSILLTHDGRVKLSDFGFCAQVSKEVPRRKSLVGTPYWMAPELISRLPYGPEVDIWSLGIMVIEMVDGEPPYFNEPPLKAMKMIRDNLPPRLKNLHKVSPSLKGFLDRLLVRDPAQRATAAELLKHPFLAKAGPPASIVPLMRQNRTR

SMILES	Kd
CNC(=O)c1ccc(C)c(-n2c(C)cc(OCc3ccc(F)cc3F)c(Br)c2=O)c1 [PH-797804]	> 30 µM (inactive)
C=CC(=O)N1CCC(Oc2cc3c(Nc4ccc(Cl)c(Cl)c4F)ncnc3cc2OC)CC1 [POZIOTINIB]	> 30 µM (inactive)
CNC(=O)c1cc(Oc2ccc(NC(=O)Nc3ccc(Cl)c(C(F)(F)F)c3)c(F)c2)ccn1 [REGORAFENIB]	> 30 µM (inactive)
CN(C)C(=O)c1cc2cnc(Nc3ccc(N4CCNCC4)cn3)nc2n1C1CCCC1 [RIBOCICLIB]	> 30 µM (inactive)

Molecular target: Tyrosine-protein kinase Lck (Homo sapiens, UniProt P06239)
Sequence (P06239 whole entry): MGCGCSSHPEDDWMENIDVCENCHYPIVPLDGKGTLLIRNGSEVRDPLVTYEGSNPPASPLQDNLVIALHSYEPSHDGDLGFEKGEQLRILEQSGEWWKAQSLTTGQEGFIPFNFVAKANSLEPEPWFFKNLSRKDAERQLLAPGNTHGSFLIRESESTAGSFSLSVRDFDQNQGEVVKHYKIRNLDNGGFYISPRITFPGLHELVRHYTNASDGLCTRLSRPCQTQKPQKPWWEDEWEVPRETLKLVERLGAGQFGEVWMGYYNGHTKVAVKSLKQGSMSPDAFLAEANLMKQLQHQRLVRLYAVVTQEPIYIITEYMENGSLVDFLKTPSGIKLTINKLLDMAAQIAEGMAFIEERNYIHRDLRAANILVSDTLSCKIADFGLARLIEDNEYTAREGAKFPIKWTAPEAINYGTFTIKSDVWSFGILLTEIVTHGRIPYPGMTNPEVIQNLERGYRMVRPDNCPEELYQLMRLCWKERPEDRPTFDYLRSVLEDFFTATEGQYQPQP

SMILES	Kd
CNC(=O)c1ccc(C)c(-n2c(C)cc(OCc3ccc(F)cc3F)c(Br)c2=O)c1 [PH-797804]	> 30 µM (inactive)
C=CC(=O)N1CCC(Oc2cc3c(Nc4ccc(Cl)c(Cl)c4F)ncnc3cc2OC)CC1 [POZIOTINIB]	> 30 µM (inactive)
CNC(=O)c1cc(Oc2ccc(NC(=O)Nc3ccc(Cl)c(C(F)(F)F)c3)c(F)c2)ccn1 [REGORAFENIB]	> 30 µM (inactive)
CN(C)C(=O)c1cc2cnc(Nc3ccc(N4CCNCC4)cn3)nc2n1C1CCCC1 [RIBOCICLIB]	> 30 µM (inactive)
